Test results published in publication PMC11229689, “In Vitro Selection of Macrocyclic L-α/D-α/β/γ-Hybrid Peptides Targeting IFN-γ/IFNGR1 Protein–Protein Interaction” (Journal of the American Chemical Society, 2024).
Where two headings read alike, the source gives them in different places. *1 amine or outer side, *2 acyl side, *3 side chain or, on linkers, in order; H or OH if unused. Where a SMILES comes first, the peptide text is derived from it. Bridges are numbered along the chain shown (N, C = ends). [ ]: non-standard residue; d: D form. Acbc(trans-1,3) = O=C([C@H]1C[C@H](N[*:1])C1)[*:2]; Acbc(cis-1,3) = O=C([C@H]1C[C@@H](N[*:1])C1)[*:2]; X1 = O=C([C@@H]1CCC[C@@H]1N[*:1])[*:2]

Key:
[1] = Serum stability assay (LC/MS); type: in vitro ADME, human; details: human serum, 37 °C, LC/MS, relative to internal standard peptide, n = 3, read-out: half-life in human serum (t1/2) (converted)
Method: (§1) Binding affinities of IA1 and IA2 against IFNGR1 were evaluated by surface plasmon resonance (SPR) (Table 1 and SI Figure S6A). […] To investigate the contribution of the N-terminal [yVPβ^1RR] motif and β^1 residue in IA1, three scrambled peptides IA1s1–3 and a variant IA1β^14A were synthesized and evaluated. […] We next evaluated inhibitory activities of IA1 and IA2 against the ligand–receptor PPI between IFN-γ and IFNGR1 using AlphaLISA (Table 1 and SI Figure S7).[37] […] We also determined the serum half-lives of IA1 and IA2, considering peptidase resistance as an important factor for therapeutic peptides.[24] A sample peptide and a peptidase-resistant internal standard peptide were coincubated in human serum at 37 °C, and the relative amount of the remaining sample peptide was estimated by LC/MS. […]
10–200 μM synthetic peptide and 5 μM serum-resistant internal standard peptide consisting only of D-amino acids (NH2-PEG5-wstndwstnd-PEG5-CONH2)3 were mixed and incubated in human serum (Cosmo Bio, 12181201) at 37 °C for up to 120 h. At each time point, 4 μL of the mixture was removed and quenched by adding 12 μl methanol. Following centrifugation (15,000 g, 4 °C, 5 min), 10 μL of the supernatant was mixed with 40 μl of 1% (v/v) TFA. Following centrifugation (15,000 g, 4 °C, 5 min), the supernatant was collected for LC/MS analysis, which used a reverse-phase column (ACQUITY UPLC BEH C18, 1.7 μm, 2.1 × 150 mm; Waters) and a Xevo G2-XS QTof system (Waters) with a linear gradient from 1% B to 61% B. Buffer A was water with 0.1% (v/v) formic acid; buffer B was acetonitrile with 0.1% (v/v) formic acid. The percentages of remaining peptides were determined by the peak area integration of the chromatograms. For tandem mass spectrometry, MS/MS spectra were acquired with a 0.2 s scan time, with 10−30 eV collision energy. The obtained LC/MS data was analyzed using MassLynx 4.1 (Waters). […]

Fc-tagged human IFNGR1 = biological target: T1, Fc-tagged human IFNGR1 (Homo sapiens, UniProt P15260); test: Binding kinetics and affinity to IFNGR1 by surface plasmon resonance (SPR); details: for kon: read-out: ka
T1 construct: purchased ACROBiosystems
T1 sequence (P15260 18-489): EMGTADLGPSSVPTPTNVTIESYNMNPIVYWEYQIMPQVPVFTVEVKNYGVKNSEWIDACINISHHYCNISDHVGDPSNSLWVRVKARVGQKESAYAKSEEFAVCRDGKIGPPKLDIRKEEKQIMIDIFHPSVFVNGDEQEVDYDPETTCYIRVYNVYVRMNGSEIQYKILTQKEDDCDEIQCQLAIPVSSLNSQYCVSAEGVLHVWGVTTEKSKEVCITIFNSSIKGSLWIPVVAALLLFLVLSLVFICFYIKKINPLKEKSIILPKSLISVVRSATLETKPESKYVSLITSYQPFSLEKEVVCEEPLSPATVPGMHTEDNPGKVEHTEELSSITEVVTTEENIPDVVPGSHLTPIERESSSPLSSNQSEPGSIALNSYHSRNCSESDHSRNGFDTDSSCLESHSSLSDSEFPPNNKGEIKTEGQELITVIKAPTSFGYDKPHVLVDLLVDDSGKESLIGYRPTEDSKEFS
Method: as §1
Evaluation of binding affinity of peptides by surface plasmon resonance The binding affinities of selected peptides and IFNGR1 were analyzed by surface plasmon resonance (SPR) using a Biacore T200 instrument (Cytiva) at 25 °C with the following running buffer: 10 mM Tris-HCl (pH 8.0), 150 mM NaCl, 0.05% (v/v) Tween 20 , and 0.1% (v/v) DMSO. Fc-tagged IFNGR1 was immobilized on a series S sensor chip protein G (Cytiva) to a surface density of 1,200–1,600 response units following the immobilization protocols provided by Cytiva. The kinetic constants were determined by a single-cycle kinetics method by the injection of five different concentrations (twofold dilution series) of each peptide at a flow rate of 30 μL/min. The resulting sensorgrams were fitted to the standard 1:1 interaction model and analyzed using Biacore evaluation software. […]

[2] = SPR, 25 °C, 1:1 binding model, read-out: KD
[3] = SPR, 25 °C, single-cycle kinetics, 1:1 binding model

Structure (SMILES)	half-life ([1]; human) [min]	Kd (Fc-tagged human IFNGR1; [2]) [µM]	kon (Fc-tagged human IFNGR1; [3]) [M⁻¹ s⁻¹]	half-life [1] [min]	Kd (Fc-tagged human IFNGR1) [µM]	kon (Fc-tagged human IFNGR1) [M⁻¹ s⁻¹]
CC(C)[C@@H]1NC(=O)[C@@H]2CCC[C@@H]2NC(=O)[C@H](CCCNC(=N)N)NC(=O)[C@H](Cc2c[nH]cn2)NC(=O)[C@@H]2CCCN2C(=O)[C@H](CCCNC(=N)N)NC(=O)[C@H]2C[C@H](C2)NC(=O)[C@H]([C@@H](C)O)NC(=O)[C@H](CCCNC(=N)N)NC(=O)[C@H](CC(N)=O)NC(=O)[C@H](CO)NC(=O)[C@@H](Cc2ccc(O)cc2)NC(=O)CSC[C@H](C(N)=O)NC(=O)[C@H](Cc2c[nH]cn2)NC(=O)[C@H](CC(N)=O)NC1=O [IA1s1, ^AcySNRTγ^1RPHRβ^1VNHc-NH2] ({CH2CO}-[dY]SNRT[Acbc(cis-1,3)]RPHR[X1]VNH[dC]-NH2; thioether N-15)	–	> 10	–	–	–	–
CC(C)[C@@H]1NC(=O)[C@@H](Cc2ccc(O)cc2)NC(=O)CSC[C@H](C(N)=O)NC(=O)[C@H]([C@@H](C)O)NC(=O)[C@H](CC(N)=O)NC(=O)[C@H](Cc2c[nH]cn2)NC(=O)[C@H](CC(N)=O)NC(=O)[C@H](CCCNC(=N)N)NC(=O)[C@H](Cc2c[nH]cn2)NC(=O)[C@H]2C[C@H](C2)NC(=O)[C@H](CO)NC(=O)[C@H](CCCNC(=N)N)NC(=O)[C@H](CCCNC(=N)N)NC(=O)[C@@H]2CCC[C@@H]2NC(=O)[C@@H]2CCCN2C1=O [IA1s2, ^AcyVPβ^1RRSγ^1HRNHNTc-NH2] ({CH2CO}-[dY]VP[X1]RRS[Acbc(cis-1,3)]HRNHNT[dC]-NH2; thioether N-15)	–	2.2 ± 0.2	2200 ± 200	–	–	–
CC(C)[C@@H]1NC(=O)[C@H](CCCNC(=N)N)NC(=O)[C@@H]2CCC[C@@H]2NC(=O)[C@@H](Cc2ccc(O)cc2)NC(=O)CSC[C@H](C(N)=O)NC(=O)[C@H](CC(N)=O)NC(=O)[C@H](CO)NC(=O)[C@H](CCCNC(=N)N)NC(=O)[C@H]2C[C@H](C2)NC(=O)[C@H](Cc2c[nH]cn2)NC(=O)[C@H](CC(N)=O)NC(=O)[C@H]([C@@H](C)O)NC(=O)[C@H](Cc2c[nH]cn2)NC(=O)[C@H](CCCNC(=N)N)NC(=O)[C@@H]2CCCN2C1=O [IA1s3, ^Acyβ^1RVPRHTNHγ^1RSNc-NH2] ({CH2CO}-[dY][X1]RVPRHTNH[Acbc(cis-1,3)]RSN[dC]-NH2; thioether N-15)	–	> 10	–	–	–	–
CC(C)[C@@H]1NC(=O)[C@@H](Cc2ccc(O)cc2)NC(=O)CSC[C@H](C(N)=O)NC(=O)[C@H](CC(N)=O)NC(=O)[C@H](CO)NC(=O)[C@H](CCCNC(=N)N)NC(=O)[C@H]2C[C@H](C2)NC(=O)[C@H](Cc2c[nH]cn2)NC(=O)[C@H](CC(N)=O)NC(=O)[C@H]([C@@H](C)O)NC(=O)[C@H](Cc2c[nH]cn2)NC(=O)[C@H](CCCNC(=N)N)NC(=O)[C@H](CCCNC(=N)N)NC(=O)[C@H](C)NC(=O)[C@@H]2CCCN2C1=O [IA1β^14A, ^AcyVPA RRHTNHγ^1RSNc-NH2] ({CH2CO}-[dY]VPARRHTNH[Acbc(cis-1,3)]RSN[dC]-NH2; thioether N-15)	42.6 ± 6	> 10	–	–	–	–
CC(C)[C@@H]1NC(=O)[C@@H](Cc2ccc(O)cc2)NC(=O)CSC[C@H](C(N)=O)NC(=O)[C@H](CC(N)=O)NC(=O)[C@H]2C[C@@H](C2)NC(=O)[C@H](CCCNC(=N)N)NC(=O)[C@@H]2CCCN2C(=O)[C@H]([C@@H](C)O)NC(=O)[C@H](CCCNC(=N)N)NC(=O)[C@H](CCCNC(=N)N)NC(=O)[C@H](CO)NC(=O)[C@H](CCCNC(=N)N)NC(=O)[C@H](CCCNC(=N)N)NC(=O)[C@H](C)NC(=O)[C@@H]2CCCN2C1=O [IB4β^14A, ^AcyVPA RRSRRTPRγ^2Nc-NH2] ({CH2CO}-[dY]VPARRSRRTPR[Acbc(trans-1,3)]N[dC]-NH2; thioether N-15)	–	–	–	30 ± 1.8	0.42 ± 0.12	8900 ± 2100
CC(C)[C@@H]1NC(=O)[C@@H](Cc2ccc(O)cc2)NC(=O)CSC[C@H](C(N)=O)NC(=O)[C@H](CC(N)=O)NC(=O)[C@H](Cc2c[nH]cn2)NC(=O)[C@H](CCCNC(=N)N)NC(=O)[C@H]2C[C@@H](C2)NC(=O)[C@H]([C@@H](C)O)NC(=O)[C@H](Cc2c[nH]cn2)NC(=O)[C@@H]2CCCN2C(=O)[C@H](CO)NC(=O)[C@H](CCCNC(=N)N)NC(=O)[C@H](CCCNC(=N)N)NC(=O)[C@H](C)NC(=O)[C@@H]2CCCN2C1=O [IB5β^14A, ^AcyVPA RRSPHTγ^2RHNc-NH2] ({CH2CO}-[dY]VPARRSPHT[Acbc(trans-1,3)]RHN[dC]-NH2; thioether N-15)	24.6 ± 1.8	> 10	–	–	–	–

More lines, main results first:

half-life ([1]; human) [min]	Kd (Fc-tagged human IFNGR1; [2]) [µM]	kon (Fc-tagged human IFNGR1; [3]) [M⁻¹ s⁻¹]	Structure (SMILES)	half-life [1] [min]	Kd (Fc-tagged human IFNGR1) [µM]	kon (Fc-tagged human IFNGR1) [M⁻¹ s⁻¹]
156 ± 6	1.4 ± 0.2	3600 ± 100	CC(C)[C@@H]1NC(=O)[C@H](Cc2ccc(O)cc2)NC(=O)CSC[C@@H](C(N)=O)NC(=O)[C@H](CC(N)=O)NC(=O)[C@H](CO)NC(=O)[C@H](CCCNC(=N)N)NC(=O)[C@H]2C[C@H](C2)NC(=O)[C@H](Cc2c[nH]cn2)NC(=O)[C@H](CC(N)=O)NC(=O)[C@H]([C@@H](C)O)NC(=O)[C@H](Cc2c[nH]cn2)NC(=O)[C@H](CCCNC(=N)N)NC(=O)[C@H](CCCNC(=N)N)NC(=O)[C@@H]2CCC[C@@H]2NC(=O)[C@@H]2CCCN2C1=O [IA1YC, ^AcYVPβ^1RRHTNHγ^1RSNC-NH2] ({CH2CO}-YVP[X1]RRHTNH[Acbc(cis-1,3)]RSNC-NH2; thioether N-15)	–	–	–
–	1.7 ± 0.2	2200 ± 300	CC(C)[C@@H]1NC(=O)[C@H](Cc2ccc(O)cc2)NC(=O)CSC[C@@H](C(N)=O)NC(=O)[C@H](CCCNC(=N)N)NC(=O)[C@H](CO)NC(=O)[C@H](CCCNC(=N)N)NC(=O)[C@H](Cc2c[nH]cn2)NC(=O)CNC(=O)[C@H]2C[C@H](C2)NC(=O)[C@H](Cc2c[nH]cn2)NC(=O)[C@H](CC(N)=O)NC(=O)[C@H](CCCNC(=N)N)NC(=O)[C@H](CCCNC(=N)N)NC(=O)[C@@H]2CCC[C@@H]2NC(=O)[C@H](C)NC1=O [IB1YC, ^AcYVAβ^1RRNHγ^1GHRSRC-NH2] ({CH2CO}-YVA[X1]RRNH[Acbc(cis-1,3)]GHRSRC-NH2; thioether N-15)	–	–	–
55.2 ± 6.6	0.045 ± 0.005	58000 ± 11000	CC(C)[C@@H]1NC(=O)[C@H](Cc2ccc(O)cc2)NC(=O)CSC[C@@H](C(N)=O)NC(=O)[C@H](CC(N)=O)NC(=O)[C@H]2C[C@@H](C2)NC(=O)[C@H](CCCNC(=N)N)NC(=O)[C@@H]2CCCN2C(=O)[C@H]([C@@H](C)O)NC(=O)[C@H](CCCNC(=N)N)NC(=O)[C@H](CCCNC(=N)N)NC(=O)[C@H](CO)NC(=O)[C@H](CCCNC(=N)N)NC(=O)[C@H](CCCNC(=N)N)NC(=O)[C@@H]2CCC[C@@H]2NC(=O)[C@@H]2CCCN2C1=O [IB4YC, ^AcYVPβ^1RRSRRTPRγ^2NC-NH2] ({CH2CO}-YVP[X1]RRSRRTPR[Acbc(trans-1,3)]NC-NH2; thioether N-15)	–	–	–
840 ± 120	1.9 ± 0.1	16000 ± 1000	CC(C)[C@@H]1NC(=O)[C@H](Cc2ccc(O)cc2)NC(=O)CSC[C@@H](C(N)=O)NC(=O)[C@H](CC(N)=O)NC(=O)[C@H](Cc2c[nH]cn2)NC(=O)[C@H](CCCNC(=N)N)NC(=O)[C@H]2C[C@@H](C2)NC(=O)[C@H]([C@@H](C)O)NC(=O)[C@H](Cc2c[nH]cn2)NC(=O)[C@@H]2CCCN2C(=O)[C@H](CO)NC(=O)[C@H](CCCNC(=N)N)NC(=O)[C@H](CCCNC(=N)N)NC(=O)[C@@H]2CCC[C@@H]2NC(=O)[C@@H]2CCCN2C1=O [IB5YC, ^AcYVPβ^1RRSPHTγ^2RHNC-NH2] ({CH2CO}-YVP[X1]RRSPHT[Acbc(trans-1,3)]RHNC-NH2; thioether N-15)	–	–	–
